Test results published in patent publication US20090253771A1, “INHIBITION OF GLIOTOXIN” (priority 2006, published 2009).
Where a SMILES comes first, the peptide text is derived from it. The star is where a group is joined. Cbz = O=C(OCc1ccccc1)*; CH2F = FC*

Experiments:
[1] = system: mouse embryonic fibroblasts (MEFs); experiment: Gliotoxin-induced apoptosis in MEFs: nuclear fragmentation (Hoechst 33342), PS exposure (annexin V-FITC) and PI uptake; type: cell-based; details: 1 μM GT, 4 h
Procedure: (§1) Gliotoxin (GT) was purified from Penicillium terlikowskii as described [Waring, 1988]. For apoptosis induction, 4×10^5 MEFs were incubated with different concentrations of GT or staurosporine (Sigma) for 4 h and apoptosis assays were performed as described below. In some cases the general caspase inhibitor Ac-ZVAD-fmk (Bachem) or the ROS scavengers N-acetylcysteine (NAC) (Sigma) or MnTBAP (Calbiochem) were added as described [Pardo, 2004]. To test the inhibitory potency of Ac-ZVAD-.fmk, MBL-2. Fas cells were incubated with anti-Fas mAb Jo-2 (1 μg/ml) for 24 h in the presence or absence of 100 μM of the caspase inhibitor and cell death was analysed by trypan blue exclusion. Nuclei were stained with 10 μg/ml of Hoechst 33342 (Molecular Probes).
(§2) Phosphatidylserine (PS) exposure and propidium iodide (PI) uptake was analysed by FACS or fluorescence microscopy as described [Pardo, 2004] using the annexin V-FITC kit from BD Pharmingen. The mitochondrial membrane potential was measured with the fluorescent probe 3,3′-dihexyloxacarbocyanine iodide (DiOC6(3), Molecular Probes) and ROS generation with 2-hydroxiethidine (2-HE, Molecular Probes) as described [Pardo, 2004].

[2] = system: mouse embryonic fibroblasts (MEFs); experiment: Mitochondrial membrane potential (DiOC6(3)) and ROS generation (2-HE) by FACS; type: cell-based; details: 1 μM GT, 4 h; for effect on GT-induced ROS production: 15 mM scavenger
Procedure: as §1, §2

[3] = system: mouse embryonic fibroblasts (MEFs); experiment: Cell death (trypan blue exclusion) and cell detachment by microscopic inspection; type: cell-based
Procedure: as §1

Bak = target: T1, Bak (Mus musculus, UniProt O08734); experiment: Conformational change of Bak (FACS, N-terminus-specific antibody); type: cell-based; details: 4 h; for effect on GT-induced N-terminal opening of Bak: 100 μM Z-VAD.fmk or 15 mM NAC or MnTBAP
T1 construct: endogenous in cells; host or cells: SV40-transformed mouse embryonic fibroblasts (wt, Bid-/-; Bak-/-xBax-/- as negative control)
T1 sequence (O08734 1-209): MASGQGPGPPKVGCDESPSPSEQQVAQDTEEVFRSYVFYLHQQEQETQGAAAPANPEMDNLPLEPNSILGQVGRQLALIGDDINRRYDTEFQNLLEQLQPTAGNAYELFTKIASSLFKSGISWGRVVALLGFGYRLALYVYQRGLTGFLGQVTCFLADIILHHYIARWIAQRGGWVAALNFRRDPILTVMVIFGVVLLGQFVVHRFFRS
Procedure: (§3) MEFs were fixed in 4% PFA, permeabilized with 0.1% saponin in PBS/5% fetal calf serum (FCS) and incubated with 2 μg/ml rabbit polyclonal anti-Bak (NT, Upstate Biotechnology) 5 μg/ml rabbit polyclonal anti-Bax (NT, Upstate Biotechnology) or 5 μg/ml rabbit purified IgG (control). After two washes with 0.1% saponin in PBS, the cells were incubated with anti rabbit-FITC antibody in 0.1% saponin/PBS/5% FCS, washed twice in 0.1% saponin/PBS, resuspended in 1% PFA/PBS and analysed by FACS with a FACScan (BD) and CellQuest® software.

[4] = system: mouse embryonic fibroblasts (MEFs); experiment: Cytochrome c release on cells (FACS); type: cell-based; details: 1 μM GT, 4 h
Procedure: (§4) Cytochrome c release was quantified by FACS analysis as recently described [Waterhouse, 2003]. Briefly, 1×10^6 of MEFs were mildly permeabilized with 25 μg/ml digitonin plus 100 mM KCl on ice for 5 min. This lead to the cellular loss of cytosolic cytochrome c. Cells were washed once with cold PBS, fixed in 4% PFA, permeabilized with 0.05% saponin and 3% BSA and then incubated with the anti-cytochrome c mAb 6H2.B4 (BD Pharmingen) or mouse IgG isotype control (Jackson) followed by anti-mouse-FITC secondary antibody (Jackson). The cells were resuspended in 100 μl PFA in PBS and analysed by FACS with a FACScan (BD) and CellQuest® software. For the analysis of the nuclear translocation of AIF, cells were fixed, mounted on poly-L-lysine coverslides and stained with a rabbit polyclonal antiAIF antibody (Sigma) as described [Pardo, 2001]. Afterwards the cells were analysed by confocal microscopy using a Leica SP2 confocal microscope and Imaris® software.

[5] = system: mouse embryonic fibroblasts (MEFs); experiment: Nuclear translocation of AIF (confocal microscopy); type: cell-based; details: 1 μM GT, 4 h
Procedure: as §4

MBL-2.Fas cells = experiment: Anti-Fas mAb Jo-2 induced cell death (trypan blue exclusion), test of the caspase inhibitor; type: cell-based; details: 1 μg/ml Jo-2, 24 h; 100 μM inhibitor
Procedure: as §1

caspase-3 = experiment: Caspase-3 activation (FACS, antibody against the active form); type: cell-based, mouse; details: 1 μM GT, 4 h; wt and Bax−/− MEFs
Procedure: Cells were fixed with 4% paraformaldehyde (PFA) and incubated with a monoclonal antibody against the active form of caspase-3 (clone C92605, BD Pharmingen). Following incubation with a FITC-labeled secondary antibody, the cells were analyzed by FACS as described [Pardo, 2004].

[6] = system: mitochondria isolated from MEFs or FDMs; experiment: Cytochrome c release from isolated mitochondria; type: biochemical, mouse
Procedure: 8×10^7 MEFs or FDMs were centrifuged and washed once in PBS. The cell pellets were resuspended in 500 μl MSH-Buffer (210 mM mannitol; 70 mM sucrose; 20 mM HEPES; 1 mM EDTA; pH 7,5; 100 μM PMSF; 400 ng/ml pepstatin; 10 μg/ml leupeptin; 10 μg/ml aprotinin and 5 μg/ml cytochalasin B). The resuspended cell pellet was incubated on ice for 15 min before the cells were broken by passaging 25 times through a 23-gauge needle. The lysate was centrifuged at 500×g for 5 min to remove cell debris and nuclei. A crude mitochondrial pellet was then obtained by centrifugation at 10,000×g for 15 min and resuspended in MSH-Buffer. The isolated mitochondria were incubated with different concentrations of GT (10 μM, 20 μM and 50 μM), or 40 nM of recombinant tBid as a positive control at 37° C. for 4 hr. Following incubation, the mitochondria were pelleted, and both, pellet and supernatant were tested for cytochrome c release by SDS-PAGE.

Fas-negative cells = experiment: GT-induced pro-apoptotic processes in Fas-negative cells (cell adhesion / cell death, neutral red); type: cell-based
Procedure: This pro-apoptotic activity may be inhibited by GT-inhibitors, e.g. anti-GT-antibodies. The degree of cell adhesion and/or cell death may be determined by standard methods. For example, the cells may be labelled with a suitable dye, e.g. neutral red, allowed to adhere and incubated subsequently with GT in the presence of a test compound. After an appropriate incubation time, the non-adherent cells may be removed and the remaining adherent cells and/or the removed cells may be determined. For example, the dye neutral red may be released from cells by […]/ethanol. Non-adherent cells equating with cell death may be quantitatively determined, e.g. with an optical detection method, preferably by measuring the absorbance at 540 nm according to standard methods, e.g. in a microplate reader.
Screening for antifungal agents capable of inhibiting the interaction between GT and Bak can be performed by means of the methylcholanthrene-induced cell line MC.Fas^−/− (date of deposition at DSMZ: 4 May 2006) stained with the vital dye Neutral Red. […] Cell loss equates with cell death resulting from GT-induced pro-apoptotic processes, and is quantified automatically by loss of absorbance at 540 nm using a microplate reader.

Bax = experiment: Conformational change of Bax (FACS, N-terminus-specific antibody); type: cell-based, mouse; details: staurosporine 1 and 5 μM, 4 h, MEFs
Procedure: as §3

[7] = 10, 20 or 50 μM GT, 4 h, 37° C.

COC(=O)C[C@H](NC(=O)[C@H](C)NC(=O)[C@@H](NC(=O)OCc1ccccc1)C(C)C)C(=O)CF [Z-VAD.fmk] (Cbz-Val-Ala-Asp(OMe)-CH2F)
effect on GT-induced annexin-V/PI staining ([1]; wt MEFs, 100 μM Z-VAD.fmk): reduced | effect on loss of the mitochondrial Δψm in GT-treated cells ([2]; wt MEFs, 100 μM Z-VAD.fmk): did not prevent | effect on GT-induced cell death ([3]; wt MEFs, GT 4 h, Z-VAD.fmk): reduced | effect on GT-induced N-terminal opening of Bak (Bak; wt MEFs, 1 μM GT): unaffected | effect on GT-induced cytochrome c release ([4]; wt MEFs, 100 μM Z-VAD): not blocked | effect on GT-induced AIF release ([5]; wt MEFs, 100 μM Z-VAD): not blocked | effect on apoptosis induced by the anti-Fas antibody Jo-2 (MBL-2.Fas cells): blocked

CN1C(=O)[C@]23CC4=CC=C[C@H](O)[C@H]4N2C(=O)[C@@]1(CO)SS3 [GT, Gliotoxin]
apoptotic cells (PS exposed, annexin-V staining, without plasma membrane disruption) ([1]; wt MEFs): ~50% | nuclear fragmentation ([1]; wt MEFs, Hoechst 33342): nuclear fragmentation in the majority | number of annexin-V/PI positive cells vs mock treated cells ([1]; Bak−/− and Bak−/−×Bax−/− MEFs): did not | number of annexin-V/PI positive cells vs mock treated cells ([1]; wt, Bak−/− (so in the source) and Bid−/− MEFs): significantly increased | ROS production ([2]; wt, Bax−/− and Bid−/− MEFs): parallel increase | mitochondrial membrane potential (Δψm) ([2]; wt, Bax−/− and Bid−/− MEFs): significant reduction | GT-mediated cell death (trypan blue exclusion) ([3]; increasing amounts of GT, 4 h, Bak−/− and Bak−/−×Bax−/− MEFs, not wt or Bax−/−): significantly reduced | GT-induced loss of cell adherence ([3]; increasing amounts of GT, 4 h, Bax- and/or Bak-deficient MEFs vs wt): only marginally, if at all, diminished | N-terminal epitope exposure (conformational change) of Bak (Bak; 1 μM GT, wt MEFs): readily induce N-terminal epitope exposure in Bak | caspase-3 activation (caspase-3): significantly activated | mitochondrial cytochrome c ([4]; Bak−/− or Bak−/−×Bax−/− MEFs): retained | mitochondrial cytochrome c ([4]; wt and Bax−/− MEFs): reduced | localization of AIF ([5]; Bak−/− and Bak−/−×Bax−/− MEFs): retained most of the AIF in the mitochondria | cells with cytosolic localization and nuclear translocation of AIF ([5]; wt and Bax−/− MEFs): a high portion | cytochrome c release from isolated mitochondria [6, 7]: dose-dependent manner | cytochrome c release from isolated mitochondria compared with 40 nM recombinant tBid [6, 7]: as efficient as that induced by recombinant tBid | cytochrome c release from isolated mitochondria ([6]; mitochondria from Bak−/− or Bak−/−×Bax−/− MEFs or FDMs): absent | induction of pro-apoptotic processes resulting in loss of cell adhesion and cell death (Fas-negative cells): dose-dependent manner

CC(=O)N[C@@H](CS)C(=O)O [NAC, N-acetylcysteine]
effect on GT-induced PS exposure and plasma membrane permeability ([1]; wt MEFs, 15 mM NAC): abrogated | effect on GT-induced reduction of the mitochondrial Δψm ([2]; wt MEFs, 15 mM NAC): abrogated | effect on GT-induced ROS production ([2]; wt MEFs): significantly reduced | effect on GT-induced cell death (trypan blue staining) ([3]; wt MEFs, 1 μM GT, 4 h, NAC): totally inhibited | effect on GT-induced cell detachment ([3]; wt MEFs, 1 μM GT, 4 h, NAC): totally inhibited | effect on GT-induced N-terminal opening of Bak (Bak; wt MEFs, 1 μM GT): unaffected | effect on GT-induced cytochrome c release from mitochondria ([4]; wt MEFs, 15 mM NAC): greatly diminished | effect on GT-induced AIF release from mitochondria ([5]; wt MEFs, 15 mM NAC): greatly diminished

CN[C@@H]1C[C@H]2O[C@@](C)([C@@H]1OC)n1c3ccccc3c3c4c(c5c6ccccc6n2c5c31)C(=O)NC4 [staurosporine]
activation of Bak (Bak; staurosporine 1 and 5 μM, MEFs): activates both Bax and Bak | N-terminal conformational change of Bax (Bax): led to the expected N-terminal opening of Bax

O=C(O)c1ccc(/C2=C3\C=CC(=N3)/C(c3ccc(C(=O)O)cc3)=c3/cc/c4[n]3[Mn]([Cl])[n]3c2ccc3/C(c2ccc(C(=O)O)cc2)=C2/C=CC(=N2)\C=4c2ccc(C(=O)O)cc2)cc1 [MnTBAP, Mn(III) tetrakis(4-benzoic acid)porphirin chloride]
effect on GT-induced ROS production ([2]; wt MEFs): significantly reduced | effect on GT-induced N-terminal opening of Bak (Bak; wt MEFs, 1 μM GT): unaffected
